{
  "source": "patent US5424456A",
  "about": "“N-arylalkylderivatives of 2-aminomethyl-2,3-dihydro-1,4-benzodioxine and the process of preparation thereof” (Vyzkumny Ustav Pro Farmacii A Biochemii s.p., priority 1991, dated 1995)",
  "key": {"blood pressure [1]": {"test_system": "blood pressure", "assay": "Hypotensive activity, pentobarbital anaesthesized dogs", "assay_type": "in vivo, dog", "description": "b) The blood pressure of pentobarbital anaesthesized dogs was registered invasively in arteria femoralis. The average decrease in systolic (SBP) arid diastolic (DBP) blood pressure expressed in per cents of the starting blood pressure level after intravenous and oral administration is shown in Tables 5 and 6."}, "blood pressure [2]": {"test_system": "blood pressure", "assay": "Hypotensive activity, conscious monkeys", "assay_type": "in vivo, Macaca mulatta", "experimental": "c) The blood pressure of conscious monkeys (Macaca mulatta) was measured non-invasively on the arm. The average decrease in systolic (SBP) and diastolic (DBP) blood pressure after intravenous and oral administration was expressed in per cents of the starting blood pressure."}, "[3]": {"test_system": "urinary bladder sphincter", "assay": "Effect on the opening pressure of the urinary bladder sphincter", "assay_type": "in vivo, rat", "settings": "rats, compared with prazosin or terazosin"}, "[4]": {"settings": "i.v., 0.45 mg/kg, value 1 of 5 (heads 5/30/60/180 min; probably 1 min)"}, "[5]": {"settings": "i.v., 0.45 mg/kg, value 2 of 5 (heads 5/30/60/180 min; probably 5 min)"}, "[6]": {"settings": "i.v., 0.45 mg/kg, value 3 of 5 (heads 5/30/60/180 min; probably 30 min)"}, "[7]": {"settings": "i.v., 0.45 mg/kg, value 4 of 5 (heads 5/30/60/180 min; probably 60 min)"}, "[8]": {"settings": "i.v., 0.45 mg/kg, value 5 of 5 (heads 5/30/60/180 min; probably 180 min)"}, "[9]": {"settings": "i.v., 4.5 mg/kg, value 1 of 5 (heads 5/30/60/180 min; probably 1 min)"}, "[10]": {"settings": "i.v., 4.5 mg/kg, value 2 of 5 (heads 5/30/60/180 min; probably 5 min)"}, "[11]": {"settings": "i.v., 4.5 mg/kg, value 3 of 5 (heads 5/30/60/180 min; probably 30 min)"}, "[12]": {"settings": "i.v., 4.5 mg/kg, value 4 of 5 (heads 5/30/60/180 min; probably 60 min)"}, "[13]": {"settings": "i.v., 4.5 mg/kg, value 5 of 5 (heads 5/30/60/180 min; probably 180 min)"}},
  "data": [
    {"smiles": "Cc1ccccc1C(C#N)(CCCNCC1COc2ccccc2O1)C(C)C", "note": "(racemic) [VUFB 17959, 5-(2,3-dihydro-1,4-benzodioxin-2-ylmethylamino)-2-isopropyl-2-(2-methylphenyl) valeronitrile]", "values": [
      {"measurement": "decrease in diastolic blood pressure (DBP)", "setting": "blood pressure [1]; [4]", "value": -52, "unit": "per cents"},
      {"measurement": "decrease in systolic blood pressure (SBP)", "setting": "blood pressure [1]; [4]", "value": -16, "unit": "per cents"},
      {"measurement": "decrease in diastolic blood pressure (DBP)", "setting": "blood pressure [1]; [5]", "value": -23, "unit": "per cents"},
      {"measurement": "decrease in systolic blood pressure (SBP)", "setting": "blood pressure [1]; [5]", "value": -23, "unit": "per cents"},
      {"measurement": "decrease in diastolic blood pressure (DBP)", "setting": "blood pressure [1]; [6]", "value": -16, "unit": "per cents"},
      {"measurement": "decrease in systolic blood pressure (SBP)", "setting": "blood pressure [1]; [6]", "value": -14, "unit": "per cents"},
      {"measurement": "decrease in diastolic blood pressure (DBP)", "setting": "blood pressure [1]; [7]", "value": -16, "unit": "per cents"},
      {"measurement": "decrease in systolic blood pressure (SBP)", "setting": "blood pressure [1]; [7]", "value": -13, "unit": "per cents"},
      {"measurement": "decrease in diastolic blood pressure (DBP)", "setting": "blood pressure [1]; [8]", "value": -2, "unit": "per cents"},
      {"measurement": "decrease in systolic blood pressure (SBP)", "setting": "blood pressure [1]; [8]", "value": -6, "unit": "per cents"},
      {"measurement": "decrease in diastolic blood pressure (DBP)", "setting": "blood pressure [1]; [9]", "value": -63, "unit": "per cents"},
      {"measurement": "decrease in systolic blood pressure (SBP)", "setting": "blood pressure [1]; [9]", "value": -43, "unit": "per cents"},
      {"measurement": "decrease in diastolic blood pressure (DBP)", "setting": "blood pressure [1]; [10]", "value": -46, "unit": "per cents"},
      {"measurement": "decrease in systolic blood pressure (SBP)", "setting": "blood pressure [1]; [10]", "value": -43, "unit": "per cents"},
      {"measurement": "decrease in diastolic blood pressure (DBP)", "setting": "blood pressure [1]; [11]", "value": -29, "unit": "per cents"},
      {"measurement": "decrease in systolic blood pressure (SBP)", "setting": "blood pressure [1]; [11]", "value": -31, "unit": "per cents"},
      {"measurement": "decrease in diastolic blood pressure (DBP)", "setting": "blood pressure [1]; [12]", "value": -25, "unit": "per cents"},
      {"measurement": "decrease in systolic blood pressure (SBP)", "setting": "blood pressure [1]; [12]", "value": -23, "unit": "per cents"},
      {"measurement": "decrease in diastolic blood pressure (DBP)", "setting": "blood pressure [1]; [13]", "value": -14, "unit": "per cents"},
      {"measurement": "decrease in systolic blood pressure (SBP)", "setting": "blood pressure [1]; [13]", "value": -17, "unit": "per cents"},
      {"measurement": "decrease in diastolic blood pressure (DBP)", "setting": "blood pressure [1]; p.o., 4.2 mg/kg, 15 min", "value": -5, "unit": "per cents"},
      {"measurement": "decrease in systolic blood pressure (SBP)", "setting": "blood pressure [1]; p.o., 4.2 mg/kg, 15 min", "value": -5, "unit": "per cents"},
      {"measurement": "decrease in diastolic blood pressure (DBP)", "setting": "blood pressure [1]; p.o., 4.2 mg/kg, 30 min", "value": -20, "unit": "per cents"},
      {"measurement": "decrease in systolic blood pressure (SBP)", "setting": "blood pressure [1]; p.o., 4.2 mg/kg, 30 min", "value": -16, "unit": "per cents"},
      {"measurement": "decrease in diastolic blood pressure (DBP)", "setting": "blood pressure [1]; p.o., 4.2 mg/kg, 60 min", "value": -20, "unit": "per cents"},
      {"measurement": "decrease in systolic blood pressure (SBP)", "setting": "blood pressure [1]; p.o., 4.2 mg/kg, 60 min", "value": -18, "unit": "per cents"},
      {"measurement": "decrease in diastolic blood pressure (DBP)", "setting": "blood pressure [1]; p.o., 4.2 mg/kg, 120 min", "value": -20, "unit": "per cents"},
      {"measurement": "decrease in systolic blood pressure (SBP)", "setting": "blood pressure [1]; p.o., 4.2 mg/kg, 120 min", "value": -20, "unit": "per cents"},
      {"measurement": "decrease in diastolic blood pressure (DBP)", "setting": "blood pressure [1]; p.o., 4.2 mg/kg, 300 min", "value": -21, "unit": "per cents"},
      {"measurement": "decrease in systolic blood pressure (SBP)", "setting": "blood pressure [1]; p.o., 4.2 mg/kg, 300 min", "value": -23, "unit": "per cents"},
      {"measurement": "decrease in diastolic blood pressure (DBP)", "setting": "blood pressure [2]; i.v., 0.25 mg/kg, 1 min", "value": -4, "unit": "per cents"},
      {"measurement": "decrease in systolic blood pressure (SBP)", "setting": "blood pressure [2]; i.v., 0.25 mg/kg, 1 min", "value": -1, "unit": "per cents"},
      {"measurement": "decrease in diastolic blood pressure (DBP)", "setting": "blood pressure [2]; i.v., 0.25 mg/kg, 5 min", "value": -16, "unit": "per cents"},
      {"measurement": "decrease in systolic blood pressure (SBP)", "setting": "blood pressure [2]; i.v., 0.25 mg/kg, 5 min", "value": -12, "unit": "per cents"},
      {"measurement": "decrease in diastolic blood pressure (DBP)", "setting": "blood pressure [2]; i.v., 0.25 mg/kg, 30 min", "value": -24, "unit": "per cents"},
      {"measurement": "decrease in systolic blood pressure (SBP)", "setting": "blood pressure [2]; i.v., 0.25 mg/kg, 30 min", "value": -22, "unit": "per cents"},
      {"measurement": "decrease in diastolic blood pressure (DBP)", "setting": "blood pressure [2]; i.v., 0.25 mg/kg, 60 min", "value": -20, "unit": "per cents"},
      {"measurement": "decrease in systolic blood pressure (SBP)", "setting": "blood pressure [2]; i.v., 0.25 mg/kg, 60 min", "value": -17, "unit": "per cents"},
      {"measurement": "decrease in diastolic blood pressure (DBP)", "setting": "blood pressure [2]; i.v., 0.25 mg/kg, 180 min", "value": -7, "unit": "per cents"},
      {"measurement": "decrease in systolic blood pressure (SBP)", "setting": "blood pressure [2]; i.v., 0.25 mg/kg, 180 min", "value": -5, "unit": "per cents"},
      {"measurement": "decrease in diastolic blood pressure (DBP)", "setting": "blood pressure [2]; i.v., 1.0 mg/kg, 1 min", "value": -34, "unit": "per cents"},
      {"measurement": "decrease in systolic blood pressure (SBP)", "setting": "blood pressure [2]; i.v., 1.0 mg/kg, 1 min", "value": -28, "unit": "per cents"},
      {"measurement": "decrease in diastolic blood pressure (DBP)", "setting": "blood pressure [2]; i.v., 1.0 mg/kg, 5 min", "value": -38, "unit": "per cents"},
      {"measurement": "decrease in systolic blood pressure (SBP)", "setting": "blood pressure [2]; i.v., 1.0 mg/kg, 5 min", "value": -31, "unit": "per cents"},
      {"measurement": "decrease in diastolic blood pressure (DBP)", "setting": "blood pressure [2]; i.v., 1.0 mg/kg, 30 min", "value": -42, "unit": "per cents"},
      {"measurement": "decrease in systolic blood pressure (SBP)", "setting": "blood pressure [2]; i.v., 1.0 mg/kg, 30 min", "value": -31, "unit": "per cents"},
      {"measurement": "decrease in diastolic blood pressure (DBP)", "setting": "blood pressure [2]; i.v., 1.0 mg/kg, 60 min", "value": -27, "unit": "per cents"},
      {"measurement": "decrease in systolic blood pressure (SBP)", "setting": "blood pressure [2]; i.v., 1.0 mg/kg, 60 min", "value": -24, "unit": "per cents"},
      {"measurement": "decrease in diastolic blood pressure (DBP)", "setting": "blood pressure [2]; i.v., 1.0 mg/kg, 180 min", "value": -14, "unit": "per cents"},
      {"measurement": "decrease in systolic blood pressure (SBP)", "setting": "blood pressure [2]; i.v., 1.0 mg/kg, 180 min", "value": -8, "unit": "per cents"},
      {"measurement": "decrease in diastolic blood pressure (DBP)", "setting": "blood pressure [2]; p.o., 10.0 mg/kg, 5-6 hours", "value": -10, "unit": "per cents"},
      {"measurement": "decrease in systolic blood pressure (SBP)", "setting": "blood pressure [2]; p.o., 10.0 mg/kg, 5-6 hours", "value": -11, "unit": "per cents"},
      {"measurement": "decrease in diastolic blood pressure (DBP)", "setting": "blood pressure [2]; p.o., 10.0 mg/kg, 0.5 hours", "value": -16, "unit": "per cents"},
      {"measurement": "decrease in systolic blood pressure (SBP)", "setting": "blood pressure [2]; p.o., 10.0 mg/kg, 0.5 hours", "value": -20, "unit": "per cents"},
      {"measurement": "decrease in diastolic blood pressure (DBP)", "setting": "blood pressure [2]; p.o., 10.0 mg/kg, 1 hours", "value": -15, "unit": "per cents"},
      {"measurement": "decrease in systolic blood pressure (SBP)", "setting": "blood pressure [2]; p.o., 10.0 mg/kg, 1 hours", "value": -15, "unit": "per cents"},
      {"measurement": "decrease in diastolic blood pressure (DBP)", "setting": "blood pressure [2]; p.o., 10.0 mg/kg, 3 hours", "value": -16, "unit": "per cents"},
      {"measurement": "decrease in systolic blood pressure (SBP)", "setting": "blood pressure [2]; p.o., 10.0 mg/kg, 3 hours", "value": -17, "unit": "per cents"},
      {"measurement": "decrease in diastolic blood pressure (DBP)", "setting": "blood pressure [2]; p.o., 10.0 mg/kg, 24 hours", "value": "+5 per cents"},
      {"measurement": "decrease in systolic blood pressure (SBP)", "setting": "blood pressure [2]; p.o., 10.0 mg/kg, 24 hours", "value": "+1 per cents"},
      {"measurement": "duration of action on opening pressure of the urinary bladder sphincter", "setting": "[3]", "value": "longer duration of action"},
      {"measurement": "lowering of the opening pressure of the urinary bladder sphincter", "setting": "[3]; corresponding doses", "value": "lowered the opening pressure of the urinary bladder sphincter of rats in corresponding doses in the same extent as prazosin"}
    ]}
  ]
}
